What was measured:
Experiment in all cases: biochemical
Settings in all cases: read-out: % Inhibition (at 10mM)
CHK2 = target: T1, CHK2 (Homo sapiens, UniProt O96017)
T1 construct: gene CHEK2

SBK1 = SBK1 (Homo sapiens, UniProt Q52WX2)
ERK2 = target: T2, ERK2 (Homo sapiens, UniProt P28482)
T2 construct: gene MAPK1

IRAK4 = IRAK4 (Homo sapiens, UniProt Q9NWZ3)
FGFR2 = FGFR2 (Homo sapiens, UniProt P21802)
Src = Src (Homo sapiens, UniProt P12931)
CamKIV = target: T3, CamKIV (Homo sapiens, UniProt Q16566)
T3 construct: gene CAMK4

PDGFR_beta = target: T4, PDGFR_beta (Homo sapiens, UniProt P09619)
T4 construct: gene PDGFRB

DCAMKL2 = target: T5, DCAMKL2 (Homo sapiens, UniProt Q8N568)
T5 construct: gene DCLK2

BrSK1 = BrSK1 (Homo sapiens, UniProt Q8TDC3)
Rse = target: T6, Rse (Homo sapiens, UniProt Q06418)
T6 construct: gene TYRO3
T6 sequence (Q06418 whole entry): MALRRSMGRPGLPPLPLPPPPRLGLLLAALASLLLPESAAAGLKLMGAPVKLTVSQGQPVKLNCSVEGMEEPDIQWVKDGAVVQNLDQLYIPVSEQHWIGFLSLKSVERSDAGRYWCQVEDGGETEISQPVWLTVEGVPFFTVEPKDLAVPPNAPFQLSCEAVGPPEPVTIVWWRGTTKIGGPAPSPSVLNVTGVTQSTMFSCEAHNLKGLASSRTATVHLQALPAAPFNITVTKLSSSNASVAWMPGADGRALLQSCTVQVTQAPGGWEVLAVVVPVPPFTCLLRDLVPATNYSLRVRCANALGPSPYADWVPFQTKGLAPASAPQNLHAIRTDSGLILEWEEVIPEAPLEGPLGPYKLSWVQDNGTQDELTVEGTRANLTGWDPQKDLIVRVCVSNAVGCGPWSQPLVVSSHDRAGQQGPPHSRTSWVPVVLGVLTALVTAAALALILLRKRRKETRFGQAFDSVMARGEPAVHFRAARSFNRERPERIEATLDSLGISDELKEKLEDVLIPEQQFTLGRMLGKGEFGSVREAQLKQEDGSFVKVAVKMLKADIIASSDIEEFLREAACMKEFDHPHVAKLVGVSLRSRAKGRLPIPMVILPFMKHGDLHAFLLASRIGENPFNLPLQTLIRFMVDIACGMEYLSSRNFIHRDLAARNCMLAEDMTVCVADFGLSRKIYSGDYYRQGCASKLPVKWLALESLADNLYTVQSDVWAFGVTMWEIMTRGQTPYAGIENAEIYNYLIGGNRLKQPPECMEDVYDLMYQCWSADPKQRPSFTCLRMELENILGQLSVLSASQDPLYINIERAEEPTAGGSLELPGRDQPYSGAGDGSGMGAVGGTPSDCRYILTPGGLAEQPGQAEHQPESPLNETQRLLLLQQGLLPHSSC

MARK1 = MARK1 (Homo sapiens, UniProt Q9P0L2)
MARK1, sequence (Q9P0L2 whole entry): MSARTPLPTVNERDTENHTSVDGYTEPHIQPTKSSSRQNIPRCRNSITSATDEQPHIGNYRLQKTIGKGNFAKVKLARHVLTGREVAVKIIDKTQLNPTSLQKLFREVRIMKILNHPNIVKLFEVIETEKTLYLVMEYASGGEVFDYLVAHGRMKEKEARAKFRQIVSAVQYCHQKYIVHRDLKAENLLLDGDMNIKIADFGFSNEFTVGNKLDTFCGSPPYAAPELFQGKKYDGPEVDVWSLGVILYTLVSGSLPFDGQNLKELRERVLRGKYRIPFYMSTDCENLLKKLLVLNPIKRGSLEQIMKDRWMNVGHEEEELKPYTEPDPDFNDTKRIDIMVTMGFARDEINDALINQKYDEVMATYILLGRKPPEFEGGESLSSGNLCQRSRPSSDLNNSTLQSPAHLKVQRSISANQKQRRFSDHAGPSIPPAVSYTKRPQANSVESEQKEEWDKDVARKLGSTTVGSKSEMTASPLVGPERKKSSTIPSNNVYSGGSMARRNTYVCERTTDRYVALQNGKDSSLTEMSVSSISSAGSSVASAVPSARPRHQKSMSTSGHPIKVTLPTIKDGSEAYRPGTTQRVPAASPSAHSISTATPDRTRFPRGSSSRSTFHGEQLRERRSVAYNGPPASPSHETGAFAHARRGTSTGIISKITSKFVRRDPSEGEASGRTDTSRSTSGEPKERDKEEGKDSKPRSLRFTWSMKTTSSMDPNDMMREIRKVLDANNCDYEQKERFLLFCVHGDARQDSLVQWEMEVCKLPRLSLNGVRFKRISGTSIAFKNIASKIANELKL

Ros = target: T7, Ros (Homo sapiens, UniProt P08922)
T7 construct: gene ROS1

PhK_gamma1 = target: T8, PhK_gamma1 (Homo sapiens, UniProt Q16816)
T8 construct: gene PHKG1

IKK_beta = target: T9, IKK_beta (Homo sapiens, UniProt O14920)
T9 construct: gene IKBKB

Lyn = Lyn (Homo sapiens, UniProt P07948)
NEK7 = NEK7 (Homo sapiens, UniProt Q8TDX7)
MRCK_beta = target: T10, MRCK_beta (Homo sapiens, UniProt Q9Y5S2)
T10 construct: gene CDC42BPB

ACVR1B = ACVR1B (Homo sapiens, UniProt P36896)
DMPK2 = target: T11, DMPK2 (Homo sapiens, UniProt Q6DT37)
T11 construct: gene CDC42BPG

PhK_gamma2 = target: T12, PhK_gamma2 (Homo sapiens, UniProt P15735)
T12 construct: gene PHKG2
T12 sequence (P15735 whole entry): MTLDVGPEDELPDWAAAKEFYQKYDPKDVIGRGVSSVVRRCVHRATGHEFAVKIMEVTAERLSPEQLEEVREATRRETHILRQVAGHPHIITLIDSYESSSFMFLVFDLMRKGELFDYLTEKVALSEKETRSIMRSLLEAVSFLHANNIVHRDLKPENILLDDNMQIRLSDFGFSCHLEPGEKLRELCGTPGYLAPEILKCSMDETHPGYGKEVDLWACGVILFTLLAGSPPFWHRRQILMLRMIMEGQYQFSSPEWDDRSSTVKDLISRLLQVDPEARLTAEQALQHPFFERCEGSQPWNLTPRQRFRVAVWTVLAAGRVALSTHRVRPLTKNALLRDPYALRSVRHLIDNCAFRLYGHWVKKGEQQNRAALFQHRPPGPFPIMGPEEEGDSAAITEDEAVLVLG

AKT1 = AKT1 (Homo sapiens, UniProt P31749)
HIPK2 = HIPK2 (Homo sapiens, UniProt Q9H2X6)
CK1_epsilon1 = target: T13, CK1_epsilon1 (Homo sapiens, UniProt P49674)
T13 construct: gene CSNK1E; epsilon 1

PRKAA2_B1_G3 = target: T14, PRKAA2_B1_G3 (Homo sapiens, UniProt P54646)
T14 construct: gene PRKAA2
T14 sequence (P54646 whole entry): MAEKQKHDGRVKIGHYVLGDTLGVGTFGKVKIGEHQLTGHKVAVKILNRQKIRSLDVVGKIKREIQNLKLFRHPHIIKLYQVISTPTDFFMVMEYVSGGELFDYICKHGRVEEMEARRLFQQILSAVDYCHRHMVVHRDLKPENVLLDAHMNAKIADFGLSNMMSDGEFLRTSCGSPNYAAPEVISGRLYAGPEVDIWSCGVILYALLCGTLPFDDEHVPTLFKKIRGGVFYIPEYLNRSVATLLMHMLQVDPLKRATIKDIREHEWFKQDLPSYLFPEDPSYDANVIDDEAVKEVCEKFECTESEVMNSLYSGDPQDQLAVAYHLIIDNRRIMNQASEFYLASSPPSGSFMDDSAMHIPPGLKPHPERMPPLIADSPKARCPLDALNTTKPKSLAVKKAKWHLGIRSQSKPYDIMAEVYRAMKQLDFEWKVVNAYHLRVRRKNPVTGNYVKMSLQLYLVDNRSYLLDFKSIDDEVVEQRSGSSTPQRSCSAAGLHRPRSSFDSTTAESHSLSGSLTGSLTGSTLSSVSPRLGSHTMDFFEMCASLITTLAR
T14 sequence (Q9UGI9 whole entry partner): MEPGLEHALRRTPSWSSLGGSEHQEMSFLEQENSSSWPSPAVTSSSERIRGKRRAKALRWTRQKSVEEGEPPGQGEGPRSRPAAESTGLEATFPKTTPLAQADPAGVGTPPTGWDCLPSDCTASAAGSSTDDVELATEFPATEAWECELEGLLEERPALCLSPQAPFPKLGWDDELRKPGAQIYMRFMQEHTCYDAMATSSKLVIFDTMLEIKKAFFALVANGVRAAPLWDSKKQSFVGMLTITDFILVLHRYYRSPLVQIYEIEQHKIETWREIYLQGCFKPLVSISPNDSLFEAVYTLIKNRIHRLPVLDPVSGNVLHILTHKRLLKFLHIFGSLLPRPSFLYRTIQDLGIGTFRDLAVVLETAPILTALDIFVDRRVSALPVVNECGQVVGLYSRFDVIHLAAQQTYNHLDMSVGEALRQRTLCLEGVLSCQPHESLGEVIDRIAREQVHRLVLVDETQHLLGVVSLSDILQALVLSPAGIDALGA
T14 sequence (Q9Y478 whole entry partner): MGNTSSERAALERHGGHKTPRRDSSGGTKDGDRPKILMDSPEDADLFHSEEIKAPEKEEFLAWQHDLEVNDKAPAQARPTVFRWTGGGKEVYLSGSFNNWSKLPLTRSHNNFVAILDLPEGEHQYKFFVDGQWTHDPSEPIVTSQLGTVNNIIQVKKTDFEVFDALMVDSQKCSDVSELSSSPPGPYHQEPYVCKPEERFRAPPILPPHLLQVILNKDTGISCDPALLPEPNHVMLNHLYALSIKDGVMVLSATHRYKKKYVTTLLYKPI

TBK1 = TBK1 (Homo sapiens, UniProt Q9UHD2)
CK1_alpha1 = target: T15, CK1_alpha1 (Homo sapiens, UniProt P48729)
T15 construct: gene CSNK1A1

CDK1/cyclinB = CDK1/cyclinB (Homo sapiens, UniProt P06493)
NEK4 = NEK4 (Homo sapiens, UniProt P51957)
Aurora_B = target: T16, Aurora_B (Homo sapiens, UniProt Q96GD4)
T16 construct: gene AURKB

PDK1(direct) = target: T17, PDK1(direct) (Homo sapiens, UniProt O15530)
T17 construct: gene PDPK1; direct

JAK3 = JAK3 (Homo sapiens, UniProt P52333)
JAK3, sequence (P52333 whole entry): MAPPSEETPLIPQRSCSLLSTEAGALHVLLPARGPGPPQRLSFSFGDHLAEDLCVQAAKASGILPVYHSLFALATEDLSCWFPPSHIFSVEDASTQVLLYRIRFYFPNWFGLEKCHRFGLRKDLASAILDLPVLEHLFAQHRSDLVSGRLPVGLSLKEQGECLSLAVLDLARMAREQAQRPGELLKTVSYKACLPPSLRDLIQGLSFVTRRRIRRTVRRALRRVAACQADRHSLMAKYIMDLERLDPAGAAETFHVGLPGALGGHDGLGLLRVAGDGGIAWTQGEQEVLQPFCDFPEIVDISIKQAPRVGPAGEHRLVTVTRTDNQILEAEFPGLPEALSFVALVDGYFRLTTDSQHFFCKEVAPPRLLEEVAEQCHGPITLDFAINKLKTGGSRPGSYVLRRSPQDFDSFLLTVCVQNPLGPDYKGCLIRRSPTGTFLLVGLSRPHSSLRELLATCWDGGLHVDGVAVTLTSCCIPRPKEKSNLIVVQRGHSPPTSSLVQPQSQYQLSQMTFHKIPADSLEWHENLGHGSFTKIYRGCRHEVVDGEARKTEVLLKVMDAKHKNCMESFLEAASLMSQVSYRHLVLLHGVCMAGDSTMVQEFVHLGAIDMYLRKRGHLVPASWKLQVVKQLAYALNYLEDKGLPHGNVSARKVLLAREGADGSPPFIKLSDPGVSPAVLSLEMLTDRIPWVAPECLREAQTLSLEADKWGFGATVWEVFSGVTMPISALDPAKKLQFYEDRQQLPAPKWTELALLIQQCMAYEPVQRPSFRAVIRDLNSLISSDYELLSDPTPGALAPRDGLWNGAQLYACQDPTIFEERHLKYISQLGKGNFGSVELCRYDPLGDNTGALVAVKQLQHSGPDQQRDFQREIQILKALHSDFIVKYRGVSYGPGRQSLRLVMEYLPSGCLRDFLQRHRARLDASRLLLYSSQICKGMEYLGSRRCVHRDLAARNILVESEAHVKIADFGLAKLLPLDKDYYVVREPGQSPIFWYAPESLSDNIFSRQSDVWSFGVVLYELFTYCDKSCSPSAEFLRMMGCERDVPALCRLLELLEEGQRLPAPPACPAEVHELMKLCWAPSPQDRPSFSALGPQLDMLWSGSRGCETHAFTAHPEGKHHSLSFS

MSSK1 = target: T18, MSSK1 (Homo sapiens, UniProt Q9UPE1)
T18 construct: gene SRPK3

Axl = Axl (Homo sapiens, UniProt P30530)
Aurora_A = target: T19, Aurora_A (Homo sapiens, UniProt O14965)
T19 construct: gene AURKA

PKD1 = target: T20, PKD1 (Homo sapiens, UniProt Q15139)
T20 construct: gene PRKD1

IGF1R = IGF1R (Homo sapiens, UniProt P08069)

IRAK4, sequence (Q9NWZ3 whole entry): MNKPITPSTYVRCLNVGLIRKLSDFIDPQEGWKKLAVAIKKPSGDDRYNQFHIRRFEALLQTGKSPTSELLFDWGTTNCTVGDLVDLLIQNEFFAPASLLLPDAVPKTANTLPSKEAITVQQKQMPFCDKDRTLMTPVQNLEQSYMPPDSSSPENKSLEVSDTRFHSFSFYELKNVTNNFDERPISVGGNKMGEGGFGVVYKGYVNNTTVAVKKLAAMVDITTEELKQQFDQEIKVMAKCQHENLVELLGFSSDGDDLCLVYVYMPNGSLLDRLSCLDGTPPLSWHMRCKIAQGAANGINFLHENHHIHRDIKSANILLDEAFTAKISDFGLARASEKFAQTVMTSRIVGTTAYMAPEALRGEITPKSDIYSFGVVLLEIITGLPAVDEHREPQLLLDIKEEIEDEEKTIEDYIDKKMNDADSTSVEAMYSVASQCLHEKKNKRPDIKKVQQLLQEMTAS

`CC(C)(O)CC(=O)NCCn1ccc2ncnc(Nc3ccc(Oc4cccc(C(F)(F)F)c4)c(Cl)c3)c21` [TAK-285] gave an inhibition (CHK2) of 20%, an inhibition (SBK1) of 8.5% and an inhibition (ERK2) of 12.5%. For the same molecule, the inhibition (IRAK4) was 6%, the inhibition (FGFR2) was 2% and the inhibition (Src) was 37.5%. For the same molecule, the inhibition (CamKIV) was 6.5%, the inhibition (PDGFR_beta) was -4% and the inhibition (DCAMKL2) was -9.5%. For the same molecule, the inhibition (BrSK1) was 5%, the inhibition (Rse) was 10.5% and the inhibition (MARK1) was 10%. It also gave an inhibition (Ros) of 7.5%, an inhibition (PhK_gamma1) of 7.5% and an inhibition (IKK_beta) of -0.5%. The inhibition (Lyn) was 39.5%, the inhibition (NEK7) was 7% and the inhibition (MRCK_beta) was 1.5%. It also gave an inhibition (ACVR1B) of -5%, an inhibition (DMPK2) of 2% and an inhibition (PhK_gamma2) of -0.5%. The inhibition (AKT1) was 1.5%, the inhibition (HIPK2) was 6% and the inhibition (CK1_epsilon1) was 10.5%. The inhibition (PRKAA2_B1_G3) was 4%, the inhibition (TBK1) was 8% and the inhibition (CK1_alpha1) was 5.5%. For the same molecule, the inhibition (CDK1/cyclinB) was 0.5%, the inhibition (NEK4) was 8.5% and the inhibition (Aurora_B) was 68%. The inhibition (PDK1(direct)) was 9%, the inhibition (JAK3) was 2% and the inhibition (MSSK1) was 5%. For the same molecule, the inhibition (Axl) was 5%, the inhibition (Aurora_A) was 17.5% and the inhibition (PKD1) was 76%. For the same molecule, the inhibition (IGF1R) was 5%.

From article PMC6978363, “Chaperone mediated detection of small molecule target binding in cells” (Nature Communications, 2020)
